In ChEMBL document CHEMBL5543097, “Synthesis and structure-activity relationships of novel 14-membered 2-fluoro ketolides with structural modification at the C11 position” (Eur J Med Chem, 2024):
≈ marks a conversion by molar mass, not a printed value. Calls of active or inactive are those of the source. The rule behind the calls is not given here.

Legend:
Streptococcus agalactiae [1] = assay: Antibacterial activity against erythromycin-resistant Streptococcus agalactiae 19-9 assessed as inhibition of visible bacterial growth incubated for 18 hrs by broth microdilution method; assay type: functional
[2] = tested on: Staphylococcus epidermidis; assay: Antibacterial activity against erythromycin-resistant Staphylococcus epidermidis 19-6 assessed as inhibition of visible bacterial growth incubated for 18 hrs by broth microdilution method; assay type: functional
Moraxella catarrhalis [3] = assay: Antibacterial activity against Moraxella catarrhalis BCA 19-31 assessed as inhibition of bacterial growth incubated for 24 hrs by CLSI based broth microdilution method; assay type: functional; details: BCA 19-31, 24 h
[4] = Cytotoxicity against mouse AML12 cells assessed as reduction in cell viability incubated for 48 hrs by MTT assay; assay type: toxicity, cell-based
Escherichia coli = assay: Antibacterial activity against Escherichia coli ATCC 35218 assessed as inhibition of visible bacterial growth; assay type: functional, organism-based
Haemophilus influenzae [5] = assay: Antibacterial activity against Haemophilus influenzae HIN 19-15 assessed as inhibition of bacterial growth incubated for 20 to 24 hrs by CLSI based broth microdilution method; assay type: functional; details: time 20-24 hrs
Streptococcus pneumoniae [6] = assay: Antibacterial activity against erythromycin-resistant Streptococcus pneumoniae SPN19-13 assessed as inhibition of visible bacterial growth incubated for 18 hrs by broth microdilution method; assay type: functional
[7] = tested on: Staphylococcus epidermidis; assay: Antibacterial activity against erythromycin-resistant Staphylococcus epidermidis 19-4 assessed as inhibition of visible bacterial growth incubated for 18 hrs by broth microdilution method; assay type: functional
Streptococcus agalactiae [8] = assay: Antibacterial activity against erythromycin-resistant Streptococcus agalactiae 19-8 assessed as inhibition of visible bacterial growth incubated for 18 hrs by broth microdilution method; assay type: functional
Moraxella catarrhalis [9] = assay: Antibacterial activity against Moraxella catarrhalis BCA 19-6 assessed as inhibition of bacterial growth incubated for 24 hrs by CLSI based broth microdilution method; assay type: functional; details: Moraxella catarrhalis, BCA 19-6, 24 h, read-out: MIC
Streptococcus pyogenes = assay: Antibacterial activity against erythromycin-resistant Streptococcus pyogenes ATCC 19615 assessed as inhibition of visible bacterial growth incubated for 18 hrs by broth microdilution method; assay type: functional
[10] = tested on: Staphylococcus epidermidis; assay: Antibacterial activity against erythromycin-resistant Staphylococcus epidermidis 19-5 assessed as inhibition of visible bacterial growth incubated for 18 hrs by broth microdilution method; assay type: functional
[11] = tested on: Staphylococcus epidermidis; assay: Antibacterial activity against erythromycin-resistant Staphylococcus epidermidis 19-11 assessed as inhibition of visible bacterial growth incubated for 18 hrs by broth microdilution method; assay type: functional
Streptococcus pneumoniae [12] = assay: Antibacterial activity against erythromycin-resistant Streptococcus pneumoniae SPN19-14 assessed as inhibition of visible bacterial growth incubated for 18 hrs by broth microdilution method; assay type: functional
[13] = tested on: Staphylococcus epidermidis; assay: Antibacterial activity against erythromycin-resistant Staphylococcus epidermidis 19-9 assessed as inhibition of visible bacterial growth incubated for 18 hrs by broth microdilution method; assay type: functional
Streptococcus pneumoniae [14] = assay: Antibacterial activity against erythromycin-resistant Streptococcus pneumoniae SPN19-8 assessed as inhibition of visible bacterial growth incubated for 18 hrs by broth microdilution method; assay type: functional
Moraxella catarrhalis [15] = assay: Antibacterial activity against Moraxella catarrhalis BCA 19-5 assessed as inhibition of bacterial growth incubated for 24 hrs by CLSI based broth microdilution method; assay type: functional; details: Moraxella catarrhalis, BCA 19-5, 24 h, read-out: MIC
[16] = tested on: Staphylococcus epidermidis; assay: Antibacterial activity against erythromycin-resistant Staphylococcus epidermidis 19-8 assessed as inhibition of visible bacterial growth incubated for 18 hrs by broth microdilution method; assay type: functional
Haemophilus influenzae [17] = assay: Antibacterial activity against Haemophilus influenzae HIN 19-18 assessed as inhibition of bacterial growth incubated for 20 to 24 hrs by CLSI based broth microdilution method; assay type: functional; details: HIN 19-18, time 20-24 hrs
[18] = tested on: Staphylococcus epidermidis; assay: Potency index, ratio of telithromycin MIC to test compound MIC for antibacterial activity against erythromycin-resistant Staphylococcus epidermidis 19-5 assessed as inhibition of visible bacterial growth incubated for 18 hrs by broth microdilution method; assay type: functional
[19] = tested on: Staphylococcus epidermidis; assay: Potency index, ratio of telithromycin MIC to test compound MIC for antibacterial activity against erythromycin-resistant Staphylococcus epidermidis 19-11 assessed as inhibition of visible bacterial growth incubated for 18 hrs by broth microdilution method; assay type: functional
[20] = tested on: Staphylococcus epidermidis; assay: Potency index, ratio of telithromycin MIC to test compound MIC for antibacterial activity against erythromycin-resistant Staphylococcus epidermidis 19-4 assessed as inhibition of visible bacterial growth incubated for 18 hrs by broth microdilution method; assay type: functional
Streptococcus pneumoniae [21] = assay: Potency index, ratio of telithromycin MIC to test compound MIC for antibacterial activity against Streptococcus pneumoniae SPN19-8 assessed as inhibition of visible bacterial growth incubated for 18 hrs by broth microdilution method; assay type: functional
[22] = Metabolic stability in human liver microsome assessed as intrinsic clearance measured at 60 mins by LC-MS/MS analysis; assay type: ADME; details: liver microsomes, read-out: CLH
[23] = Metabolic stability in human liver microsome assessed as parent compound remaining in absence of NADPH measured at 60 mins by LC-MS/MS analysis; assay type: ADME; details: liver microsomes, read-out: Stability
[24] = Metabolic stability in human liver microsome assessed as parent compound remaining in presence of NADPH measured at 60 mins by LC-MS/MS analysis; assay type: ADME; details: liver microsomes, read-out: Stability
[25] = Metabolic stability in human liver microsome assessed as half life measured at 60 mins by LC-MS/MS analysis; assay type: ADME; details: liver microsomes
Streptococcus pneumoniae [26] = assay: Potency index, ratio of telithromycin MIC to test compound MIC for antibacterial activity against Streptococcus pneumoniae SPN19-14 assessed as inhibition of visible bacterial growth incubated for 18 hrs by broth microdilution method; assay type: functional
[27] = tested on: Staphylococcus epidermidis; assay: Potency index, ratio of telithromycin MIC to test compound MIC for antibacterial activity against erythromycin-resistant Staphylococcus epidermidis 19-8 assessed as inhibition of visible bacterial growth incubated for 18 hrs by broth microdilution method; assay type: functional
Haemophilus influenzae [28] = assay: Antibacterial activity against Haemophilus influenzae HIN 20-18 assessed as inhibition of bacterial growth incubated for 20 to 24 hrs by CLSI based broth microdilution method; assay type: functional; details: time 20-24 hrs
Streptococcus pneumoniae [29] = assay: Potency index, ratio of telithromycin MIC to test compound MIC for antibacterial activity against Streptococcus pneumoniae SPN19-13 assessed as inhibition of visible bacterial growth incubated for 18 hrs by broth microdilution method; assay type: functional
[30] = tested on: Staphylococcus epidermidis; assay: Potency index, ratio of telithromycin MIC to test compound MIC for antibacterial activity against erythromycin-resistant Staphylococcus epidermidis 19-6 assessed as inhibition of visible bacterial growth incubated for 18 hrs by broth microdilution method; assay type: functional
[31] = tested on: Staphylococcus epidermidis; assay: Potency index, ratio of telithromycin MIC to test compound MIC for antibacterial activity against erythromycin-resistant Staphylococcus epidermidis 19-9 assessed as inhibition of visible bacterial growth incubated for 18 hrs by broth microdilution method; assay type: functional

| SMILES | MIC (Streptococcus agalactiae [1]) | MIC [2] | MIC (Moraxella catarrhalis [3]) | CC50 at 48 h [4] | Activity (Escherichia coli) | MIC (Haemophilus influenzae [5]) | MIC (Streptococcus pneumoniae [6]) | MIC [7] | MIC (Streptococcus agalactiae [8]) | MIC (Moraxella catarrhalis [9]) | MIC (Streptococcus pyogenes) | MIC [10] | MIC [11] | MIC (Streptococcus pneumoniae [12]) | MIC [13] | MIC (Streptococcus pneumoniae [14]) | MIC (Moraxella catarrhalis [15]) | MIC [16] | MIC (Haemophilus influenzae [17]) | Ratio [18] | also measured |
| --- | --- | --- | --- | --- | --- | --- | --- | --- | --- | --- | --- | --- | --- | --- | --- | --- | --- | --- | --- | --- | --- |
| CC[C@H]1OC(=O)[C@@](C)(F)C(=O)[C@H](C)[C@@H](O[C@@H]2O[C@H](C)C[C@H](N(C)C)[C@H]2O)[C@](C)(OC)C[C@@H](C)C(=O)[C@H](C)[C@H]2N(CCCOC(=O)Nc3ccccc3[N+](=O)[O-])C(=O)O[C@]12C | 4 µg/mL (≈ 4.69 µM) | 0.125 µg/mL (≈ 0.147 µM) | 0.125 µg/mL (≈ 0.147 µM) | 27.4 µM | Active | 8 µg/mL (≈ 9.38 µM) | 0.25 µg/mL (≈ 0.293 µM) | 0.125 µg/mL (≈ 0.147 µM) | < 0.03 µg/mL | 0.5 µg/mL (≈ 0.586 µM) | < 0.03 µg/mL | 0.125 µg/mL (≈ 0.147 µM) | 0.125 µg/mL (≈ 0.147 µM) | 0.25 µg/mL (≈ 0.293 µM) | 0.25 µg/mL (≈ 0.293 µM) | 1 µg/mL (≈ 1.17 µM) | 0.5 µg/mL (≈ 0.586 µM) | 0.125 µg/mL (≈ 0.147 µM) | 8 µg/mL (≈ 9.38 µM) |  |  |
| CC[C@H]1OC(=O)[C@@](C)(F)C(=O)[C@H](C)[C@@H](O[C@@H]2O[C@H](C)C[C@H](N(C)C)[C@H]2O)[C@](C)(OC)C[C@@H](C)C(=O)[C@H](C)[C@H]2N(CCCOC(=O)Nc3ccc4c(c3)CCO4)C(=O)O[C@]12C | 2 µg/mL (≈ 2.35 µM) | 0.06 µg/mL (≈ 0.0706 µM) | 0.06 µg/mL (≈ 0.0706 µM) | > 100 µM |  | 8 µg/mL (≈ 9.41 µM) | 0.6 µg/mL (≈ 0.706 µM) | 0.03 µg/mL (≈ 0.0353 µM) |  | 0.125 µg/mL (≈ 0.147 µM) | < 0.03 µg/mL | < 0.03 µg/mL | < 0.03 µg/mL | 0.06 µg/mL (≈ 0.0706 µM) | 0.06 µg/mL (≈ 0.0706 µM) | 0.06 µg/mL (≈ 0.0706 µM) | 0.06 µg/mL (≈ 0.0706 µM) | 0.03 µg/mL (≈ 0.0353 µM) | 2 µg/mL (≈ 2.35 µM) | 4 | Ratio [19]: 4; Ratio [20]: 4; Ratio (Streptococcus pneumoniae [21]): <4; microsomal CLint [22]: 341 µL/min/mg; remaining at 1 h [23]: 89.4%; remaining at 1 h [24]: 0.3%; half-life [25]: 2 min; Ratio (Streptococcus pneumoniae [26]): <4; Ratio [27]: 4; MIC (Haemophilus influenzae [28]): 8 µg/mL (≈ 9.41 µM); Ratio (Streptococcus pneumoniae [29]): <4; Ratio [30]: 4; Ratio [31]: 4 |
| CC[C@H]1OC(=O)[C@@](C)(F)C(=O)[C@H](C)[C@@H](O[C@@H]2O[C@H](C)C[C@H](N(C)C)[C@H]2O)[C@](C)(OC)C[C@@H](C)C(=O)[C@H](C)[C@H]2N(CCCOC(=O)Nc3ccc(F)cc3)C(=O)O[C@]12C | 0.25 µg/mL (≈ 0.303 µM) | < 0.03 µg/mL | 0.03 µg/mL (≈ 0.0363 µM) | 97.9 µM |  | 4 µg/mL (≈ 4.84 µM) | < 0.03 µg/mL | < 0.03 µg/mL | < 0.03 µg/mL | 0.03 µg/mL (≈ 0.0363 µM) | < 0.03 µg/mL | < 0.03 µg/mL | < 0.03 µg/mL | < 0.03 µg/mL | 0.06 µg/mL (≈ 0.0726 µM) | < 0.03 µg/mL | 0.03 µg/mL (≈ 0.0363 µM) | < 0.03 µg/mL | 2 µg/mL (≈ 2.42 µM) | 4 | Ratio [19]: 4; Ratio [20]: 4; Ratio (Streptococcus pneumoniae [21]): <4; microsomal CLint [22]: 183 µL/min/mg; remaining at 1 h [23]: 95%; remaining at 1 h [24]: 0.4%; half-life [25]: 3.8 min; Ratio (Streptococcus pneumoniae [26]): <4; Ratio [27]: 4; Ratio (Streptococcus pneumoniae [29]): <4; Ratio [30]: 4; Ratio [31]: 4 |
| CC[C@H]1OC(=O)[C@@](C)(F)C(=O)[C@H](C)[C@@H](O[C@@H]2O[C@H](C)C[C@H](N(C)C)[C@H]2O)[C@](C)(OC)C[C@@H](C)C(=O)[C@H](C)[C@H]2N(CCCOC(=O)Nc3cccnc3)C(=O)O[C@]12C | 0.25 µg/mL (≈ 0.309 µM) | 125 µg/mL (≈ 155 µM) | 0.06 µg/mL (≈ 0.0742 µM) | > 100 µM | Active | 4 µg/mL (≈ 4.94 µM) | 0.125 µg/mL (≈ 0.155 µM) | 0.25 µg/mL (≈ 0.309 µM) | < 0.03 µg/mL | 0.06 µg/mL (≈ 0.0742 µM) | < 0.03 µg/mL | 0.125 µg/mL (≈ 0.155 µM) | 0.125 µg/mL (≈ 0.155 µM) | 0.125 µg/mL (≈ 0.155 µM) | 0.5 µg/mL (≈ 0.618 µM) | 0.125 µg/mL (≈ 0.155 µM) | 0.06 µg/mL (≈ 0.0742 µM) | 0.125 µg/mL (≈ 0.155 µM) | 4 µg/mL (≈ 4.94 µM) |  |  |
